From ChEMBL document CHEMBL1201862, “PubChem BioAssay data set” (2004)
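Step 1: Grow cells in 96-well plates. Step 2: Expose to compound for 48 hours at 5 concentrations. Step 3: Interpolate endpoints linearly; if unreached, use highest concentration. GI50 marks 50% less growth.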 Activity calls are given as the source filed them. No stated cut-off is given here; in the data, active = GI50 up to about 1.1 µM and inactive = higher.

Key:
Test in all cases: NCI anticancer screen, dose series, 48 h
SK-MEL-5 = test system: SK-MEL-5
UO-31 = test system: UO-31
NCI-H226 = test system: NCI-H226
MCF7 = test system: MCF7
EKVX = test system: EKVX
MOLT-4 = test system: MOLT-4
SK-OV-3 = test system: SK-OV-3
UACC-257 = test system: UACC-257
SK-MEL-2 = test system: SK-MEL-2
LOX IMVI = test system: LOX IMVI
PC-3 = test system: PC-3
786-0 = test system: 786-0
HL-60 = test system: HL-60
NCI-H23 = test system: NCI-H23
IGROV-1 = test system: IGROV-1
HOP-92 = test system: HOP-92
SF-539 = test system: SF-539
UACC-62 = test system: UACC-62
A498 = test system: A498

Structure (SMILES)	GI50 (SK-MEL-5)	GI50 (UO-31)	GI50 (NCI-H226)	GI50 (MCF7)	GI50 (EKVX)	GI50 (MOLT-4)	GI50 (SK-OV-3)	GI50 (UACC-257)	GI50 (SK-MEL-2)	GI50 (LOX IMVI)	GI50 (PC-3)	GI50 (786-0)	GI50 (HL-60)	GI50 (NCI-H23)	GI50 (IGROV-1)	GI50 (HOP-92)	GI50 (SF-539)	GI50 (UACC-62)	GI50 (A498)
O=C(c1cccs1)N1CCN(C(=O)c2cccs2)C1=S	4.59 µM (inactive)	2.33 µM (inactive)	15.8 µM (inactive)	3.18 µM (inactive)	13.9 µM (inactive)	3.24 µM (inactive)	15.6 µM (inactive)	6.19 µM (inactive)	11.9 µM (inactive)	2.86 µM (inactive)	4.5 µM (inactive)	2.75 µM (inactive)	2.23 µM (inactive)	12.7 µM (inactive)	6.7 µM (inactive)	7.19 µM (inactive)	1.81 µM (inactive)	5.89 µM (inactive)	15.1 µM (inactive)
CC(=O)c1ccccc1NS(=O)(=O)c1ccc2nc(C)n(NS(=O)(=O)c3ccccc3C(C)=O)c(=O)c2c1	> 100 µM (inactive)	37.3 µM (inactive)	> 100 µM (inactive)	> 100 µM (inactive)	> 100 µM (inactive)	> 100 µM (inactive)	> 100 µM (inactive)	> 100 µM (inactive)	> 100 µM (inactive)	> 100 µM (inactive)	> 100 µM (inactive)	> 100 µM (inactive)	> 100 µM (inactive)	> 100 µM (inactive)	> 100 µM (inactive)	> 100 µM (inactive)	> 100 µM (inactive)	> 100 µM (inactive)	> 100 µM (inactive)
CCOP(=O)(OCC)C(NC(=O)OCC(Cl)(Cl)Cl)n1nnc(C(=O)OC)c1C(=O)OC (stereo not drawn)	> 100 µM (inactive)	> 100 µM (inactive)	> 100 µM (inactive)	> 100 µM (inactive)	> 100 µM (inactive)	> 100 µM (inactive)	> 100 µM (inactive)	> 100 µM (inactive)	> 100 µM (inactive)	> 100 µM (inactive)	77.8 µM (inactive)	> 100 µM (inactive)	> 100 µM (inactive)	> 100 µM (inactive)	> 100 µM (inactive)	> 100 µM (inactive)	> 100 µM (inactive)	> 100 µM (inactive)	> 100 µM (inactive)
O=C(O)c1[nH]c(=O)[nH]c(=O)c1CN1CCCCC1	> 100 µM (inactive)	> 100 µM (inactive)	> 100 µM (inactive)	> 100 µM (inactive)	> 100 µM (inactive)		> 100 µM (inactive)	> 100 µM (inactive)	> 100 µM (inactive)	> 100 µM (inactive)	> 100 µM (inactive)	> 100 µM (inactive)	> 100 µM (inactive)	> 100 µM (inactive)	> 100 µM (inactive)	> 100 µM (inactive)		> 100 µM (inactive)	> 100 µM (inactive)
O=C(O)C(F)(F)C(F)(F)C(F)(F)C(F)(F)C(=O)O	> 100 µM (inactive)	> 100 µM (inactive)	> 100 µM (inactive)	> 100 µM (inactive)	> 100 µM (inactive)		> 100 µM (inactive)	> 100 µM (inactive)	> 100 µM (inactive)	> 100 µM (inactive)	> 100 µM (inactive)	> 100 µM (inactive)	> 100 µM (inactive)	> 100 µM (inactive)	> 100 µM (inactive)	> 100 µM (inactive)		> 100 µM (inactive)	> 100 µM (inactive)
N=C(N)N/N=C/c1nc2n(c1[N+](=O)[O-])CCS2	18.5 µM (inactive)	> 100 µM (inactive)	35.8 µM (inactive)	15 µM (inactive)	22.9 µM (inactive)	22.2 µM (inactive)	45.3 µM (inactive)	17.1 µM (inactive)	17.5 µM (inactive)	15.7 µM (inactive)	31.6 µM (inactive)	38.6 µM (inactive)	22.5 µM (inactive)	14.5 µM (inactive)	50.2 µM (inactive)	> 100 µM (inactive)	29 µM (inactive)	42.8 µM (inactive)	43.3 µM (inactive)
O=C(/C=C/c1ccc(OCc2ccccc2)c(OCc2ccccc2)c1)OCc1ccccc1	> 100 µM (inactive)	> 100 µM (inactive)	> 100 µM (inactive)	> 100 µM (inactive)	> 100 µM (inactive)	> 100 µM (inactive)	> 100 µM (inactive)	> 100 µM (inactive)	> 100 µM (inactive)	> 100 µM (inactive)	> 100 µM (inactive)	> 100 µM (inactive)	> 100 µM (inactive)	> 100 µM (inactive)	> 100 µM (inactive)	> 100 µM (inactive)	> 100 µM (inactive)	> 100 µM (inactive)	> 100 µM (inactive)
CCCCCCCCCCCCCCCCNc1ccn(C2CC(OP(=O)(O)OCC3OC(n4cc(CC)c(=O)[nH]c4=O)CC3O)C(CO)O2)c(=O)n1 (stereo not drawn)	2.29 µM (inactive)	19.2 µM (inactive)	47.2 µM (inactive)	32.5 µM (inactive)	43 µM (inactive)	20.3 µM (inactive)	27.3 µM (inactive)	30.3 µM (inactive)	19.4 µM (inactive)	44.7 µM (inactive)	18.5 µM (inactive)	83.2 µM (inactive)	4.66 µM (inactive)	34.6 µM (inactive)	41.5 µM (inactive)	48.4 µM (inactive)	18.4 µM (inactive)	18 µM (inactive)	> 100 µM (inactive)
CC(=O)NCCC1CNc2ccccc21 (stereo not drawn)	> 100 µM (inactive)	> 100 µM (inactive)	> 100 µM (inactive)	> 100 µM (inactive)	> 100 µM (inactive)	> 100 µM (inactive)	> 100 µM (inactive)	> 100 µM (inactive)	> 100 µM (inactive)	> 100 µM (inactive)	> 100 µM (inactive)		> 100 µM (inactive)	> 100 µM (inactive)	> 100 µM (inactive)	> 100 µM (inactive)	> 100 µM (inactive)	> 100 µM (inactive)	> 100 µM (inactive)
COc1ccc(-c2cc(-c3ccc(Nc4ccnc5cc(Cl)ccc45)cc3)[nH]c(=O)c2C#N)cc1		> 100 µM (inactive)	> 100 µM (inactive)	> 100 µM (inactive)	> 100 µM (inactive)	> 100 µM (inactive)	> 100 µM (inactive)		> 100 µM (inactive)	> 100 µM (inactive)	> 100 µM (inactive)	> 100 µM (inactive)	> 100 µM (inactive)	> 100 µM (inactive)	> 100 µM (inactive)	> 100 µM (inactive)	> 100 µM (inactive)	> 100 µM (inactive)	> 100 µM (inactive)
CC1(C)CCN2C(=O)C34CCCC3CC21S4 (stereo not drawn)	> 100 µM (inactive)	> 100 µM (inactive)	> 100 µM (inactive)	> 100 µM (inactive)	> 100 µM (inactive)	> 100 µM (inactive)	> 100 µM (inactive)	> 100 µM (inactive)	> 100 µM (inactive)	> 100 µM (inactive)	> 100 µM (inactive)	> 100 µM (inactive)	> 100 µM (inactive)	> 100 µM (inactive)	> 100 µM (inactive)	> 100 µM (inactive)	> 100 µM (inactive)	> 100 µM (inactive)	> 100 µM (inactive)
CC1(C)OC2C(CO)OC(n3ccc(N)nc3=O)C2O1 (stereo not drawn)	> 100 µM (inactive)	> 100 µM (inactive)	> 100 µM (inactive)	> 100 µM (inactive)	> 100 µM (inactive)	> 100 µM (inactive)	> 100 µM (inactive)	> 100 µM (inactive)	> 100 µM (inactive)	> 100 µM (inactive)	> 100 µM (inactive)	> 100 µM (inactive)	> 100 µM (inactive)	> 100 µM (inactive)	> 100 µM (inactive)	> 100 µM (inactive)	> 100 µM (inactive)	> 100 µM (inactive)	21.5 µM (inactive)
O=C1C=CC2(C=C1)O[C@H](Cc1ccccc1)[C@@H](Cc1ccccc1)O2	0.568 µM (active)	0.258 µM (active)	0.255 µM (active)	0.256 µM (active)	0.355 µM (active)		5.85 µM (inactive)	1.28 µM (inactive)	1.41 µM (inactive)	0.223 µM (active)	0.873 µM (active)		1.28 µM (inactive)	1.16 µM (inactive)	0.218 µM (active)	1.01 µM (active)	0.37 µM (active)	1.66 µM (inactive)	5.74 µM (inactive)
O=C1C(=O)C(CCCO)(CCCO)CCCCCCCCC1(CCCO)CCCO	41.1 µM (inactive)	37.4 µM (inactive)	> 100 µM (inactive)	55.1 µM (inactive)	> 100 µM (inactive)		> 100 µM (inactive)	73.8 µM (inactive)	46.8 µM (inactive)	64.7 µM (inactive)	55.3 µM (inactive)	> 100 µM (inactive)	12.4 µM (inactive)	> 100 µM (inactive)	41.3 µM (inactive)	39.7 µM (inactive)	80.4 µM (inactive)	88.1 µM (inactive)	> 100 µM (inactive)
Nc1ccc(Nc2cc(=O)[nH]c(=O)[nH]2)cc1Cl	> 100 µM (inactive)	> 100 µM (inactive)	> 100 µM (inactive)	> 100 µM (inactive)		> 100 µM (inactive)	> 100 µM (inactive)	> 100 µM (inactive)	> 100 µM (inactive)	> 100 µM (inactive)	> 100 µM (inactive)	> 100 µM (inactive)	> 100 µM (inactive)	> 100 µM (inactive)		> 100 µM (inactive)	> 100 µM (inactive)	> 100 µM (inactive)	> 100 µM (inactive)
